# Measurements published in ChEMBL document CHEMBL1201862, “PubChem BioAssay data set” (2004).
#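 These data come from cells grown in 96-well plates and exposed to compound for 48 hours at five concentrations. GI50 marks 50% less growth.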 Active and inactive are the calls of the source. Cut-off read from the data, not from the text of the source: active = GI50 up to about 1.1 µM and inactive = higher.
# Legend:
# Assay in all cases: NCI tumour cell line growth inhibition, 48 h
# DU-145 = tested on: DU-145
# HCC 2998 = tested on: HCC 2998
# HCT-15 = tested on: HCT-15
# HOP-62 = tested on: HOP-62
# IGROV-1 = tested on: IGROV-1
# MCF7 = tested on: MCF7
# MDA-MB-435 = tested on: MDA-MB-435
# MOLT-4 = tested on: MOLT-4
# NCI-H460 = tested on: NCI-H460
# OVCAR-5 = tested on: OVCAR-5
# SF-295 = tested on: SF-295
# SF-539 = tested on: SF-539
# SK-MEL-28 = tested on: SK-MEL-28
# SNB-75 = tested on: SNB-75
# T47D = tested on: T47D
# U-251 = tested on: U-251
# UACC-62 = tested on: UACC-62
# HL-60 = tested on: HL-60
SMILES,GI50 (DU-145),GI50 (HCC 2998),GI50 (HCT-15),GI50 (HOP-62),GI50 (IGROV-1),GI50 (MCF7),GI50 (MDA-MB-435),GI50 (MOLT-4),GI50 (NCI-H460),GI50 (OVCAR-5),GI50 (SF-295),GI50 (SF-539),GI50 (SK-MEL-28),GI50 (SNB-75),GI50 (T47D),GI50 (U-251),GI50 (UACC-62),GI50 (HL-60)
N=C(N)SCC(=O)O,> 100 µM (inactive),> 100 µM (inactive),> 100 µM,> 100 µM (inactive),> 100 µM (inactive),> 100 µM (inactive),> 100 µM (inactive),> 100 µM (inactive),> 100 µM (inactive),> 100 µM (inactive),> 100 µM (inactive),> 100 µM (inactive),> 100 µM (inactive),> 100 µM (inactive),> 100 µM (inactive),> 100 µM (inactive),> 100 µM (inactive),–
Cc1ccc(C2=Nc3cccc4cccc(c34)N2)cc1,> 100 µM (inactive),> 100 µM (inactive),> 100 µM,> 100 µM (inactive),> 100 µM (inactive),> 100 µM (inactive),> 100 µM (inactive),> 100 µM (inactive),> 100 µM (inactive),–,> 100 µM (inactive),> 100 µM (inactive),> 100 µM (inactive),> 100 µM (inactive),> 100 µM (inactive),> 100 µM (inactive),> 100 µM (inactive),> 100 µM (inactive)
N/C(=N\Nc1nc2cc([N+](=O)[O-])ccc2o1)c1ccccn1,0.182 µM (active),–,0.0287 µM,0.232 µM (active),0.147 µM (active),0.12 µM (active),0.551 µM (active),0.0621 µM (active),0.0468 µM (active),0.137 µM (active),0.207 µM (active),0.124 µM (active),0.222 µM (active),0.817 µM (active),0.073 µM (active),0.0966 µM (active),0.0574 µM (active),0.0594 µM (active)
COC(=O)C(COC(C)=O)NC(=O)/C=C/c1ccc(O)c(OC(C)=O)c1 (stereo unspecified),58.6 µM (inactive),63.4 µM (inactive),8.97 µM,49.3 µM (inactive),31.6 µM (inactive),> 100 µM (inactive),> 100 µM (inactive),13.6 µM (inactive),60.3 µM (inactive),> 100 µM (inactive),> 100 µM (inactive),15.1 µM (inactive),66.2 µM (inactive),> 100 µM (inactive),31.2 µM (inactive),37 µM (inactive),> 100 µM (inactive),–
COC(=O)/C(=C\C(=O)c1ccc(Br)cc1)NN=C(c1ccccc1)c1ccccc1,> 10 µM (inactive),> 10 µM (inactive),> 10 µM,> 10 µM (inactive),> 10 µM (inactive),> 10 µM (inactive),> 10 µM (inactive),> 10 µM (inactive),–,–,> 10 µM (inactive),–,> 10 µM (inactive),> 10 µM (inactive),> 10 µM (inactive),–,> 10 µM (inactive),> 10 µM (inactive)
O=C(NNc1ccc([N+](=O)[O-])cc1[N+](=O)[O-])/C(O)=C\C(=O)c1ccccc1,16.9 µM (inactive),16.4 µM (inactive),16.5 µM,16.3 µM (inactive),17.9 µM (inactive),29.4 µM (inactive),30.5 µM (inactive),17.7 µM (inactive),19 µM (inactive),19.7 µM (inactive),15.3 µM (inactive),15.4 µM (inactive),23.5 µM (inactive),12.8 µM (inactive),15.6 µM (inactive),14.9 µM (inactive),15.5 µM (inactive),–
COc1cc(C2c3cc4c(cc3OC(NCCO)C2C)OCO4)cc(OC)c1O (stereo unspecified),9.79 µM (inactive),5.81 µM (inactive),3.44 µM,–,7.11 µM (inactive),9.29 µM (inactive),2.1 µM (inactive),–,–,30.7 µM (inactive),5.48 µM (inactive),13.9 µM (inactive),7.64 µM (inactive),7.45 µM (inactive),18.2 µM (inactive),6.08 µM (inactive),2.94 µM (inactive),–
Cc1ccc(/C=C2/N/C(=N\N=C/c3ccccc3)NC2=O)cc1,55.1 µM (inactive),28.9 µM (inactive),30.9 µM,54.6 µM (inactive),51.6 µM (inactive),28.8 µM (inactive),24.2 µM (inactive),21.9 µM (inactive),31.6 µM (inactive),> 100 µM (inactive),28.9 µM (inactive),44.4 µM (inactive),36.4 µM (inactive),31.3 µM (inactive),28.7 µM (inactive),26 µM (inactive),–,–
COc1ccccc1CNCCCCCNCCCCCCCCCCNCCCCCNCc1ccccc1OC,18 µM (inactive),22.4 µM (inactive),> 100 µM,16 µM (inactive),18.8 µM (inactive),18 µM (inactive),57.4 µM (inactive),13.6 µM (inactive),13.8 µM (inactive),–,24.7 µM (inactive),8.65 µM (inactive),79.1 µM (inactive),25.6 µM (inactive),54.7 µM (inactive),18.9 µM (inactive),36.6 µM (inactive),21.8 µM (inactive)
